Ten compounds from ChEMBL document CHEMBL3351282, “An update on therapeutic opportunities offered by cancer glycolytic metabolism” (Bioorg Med Chem Lett, 2014) can be followed below.

pEC50, pIC50, pKd: −log10 of the molar value.

Assay [1] is described as follows: Growth inhibition of VHL deficient human RCC4 cells. It counts as functional, cell-based.
Assay [2] in a line: Growth inhibition of VHL-positive human RCC4/VHL cells. The assay is classed as functional, cell-based.
A further assay has as its target Alpha-enolase (Homo sapiens, UniProt P06733). Briefly: Inhibition of ENO1 (unknown origin).
For assay [3], the target named is T1, Pyruvate kinase PKM (Homo sapiens, UniProt P14618). Briefly: Activation of pyruvate kinase PKM2 (unknown origin).
T1 sequence (P14618 whole entry): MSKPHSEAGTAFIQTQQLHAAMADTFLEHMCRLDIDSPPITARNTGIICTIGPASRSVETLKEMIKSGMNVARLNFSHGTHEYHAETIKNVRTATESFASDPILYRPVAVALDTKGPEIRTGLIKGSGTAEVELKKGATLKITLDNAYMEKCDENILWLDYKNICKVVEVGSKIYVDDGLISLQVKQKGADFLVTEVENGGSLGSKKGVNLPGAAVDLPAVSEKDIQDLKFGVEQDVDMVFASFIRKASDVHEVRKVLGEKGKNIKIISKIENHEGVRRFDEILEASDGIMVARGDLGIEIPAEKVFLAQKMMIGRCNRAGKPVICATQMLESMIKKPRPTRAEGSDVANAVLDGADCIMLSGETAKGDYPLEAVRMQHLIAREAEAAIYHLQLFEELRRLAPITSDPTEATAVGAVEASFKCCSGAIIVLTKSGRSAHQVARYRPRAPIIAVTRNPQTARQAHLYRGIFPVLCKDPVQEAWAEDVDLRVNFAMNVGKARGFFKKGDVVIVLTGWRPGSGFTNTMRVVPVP
For assay [4], the target named is 6-phosphofructo-2-kinase/fructose-2,6-bisphosphatase 3 (Homo sapiens, UniProt Q16875). Briefly: Inhibition of PFKFB3 (unknown origin).
Sequence of 6-phosphofructo-2-kinase/fructose-2,6-bisphosphatase 3 (Q16875 whole entry): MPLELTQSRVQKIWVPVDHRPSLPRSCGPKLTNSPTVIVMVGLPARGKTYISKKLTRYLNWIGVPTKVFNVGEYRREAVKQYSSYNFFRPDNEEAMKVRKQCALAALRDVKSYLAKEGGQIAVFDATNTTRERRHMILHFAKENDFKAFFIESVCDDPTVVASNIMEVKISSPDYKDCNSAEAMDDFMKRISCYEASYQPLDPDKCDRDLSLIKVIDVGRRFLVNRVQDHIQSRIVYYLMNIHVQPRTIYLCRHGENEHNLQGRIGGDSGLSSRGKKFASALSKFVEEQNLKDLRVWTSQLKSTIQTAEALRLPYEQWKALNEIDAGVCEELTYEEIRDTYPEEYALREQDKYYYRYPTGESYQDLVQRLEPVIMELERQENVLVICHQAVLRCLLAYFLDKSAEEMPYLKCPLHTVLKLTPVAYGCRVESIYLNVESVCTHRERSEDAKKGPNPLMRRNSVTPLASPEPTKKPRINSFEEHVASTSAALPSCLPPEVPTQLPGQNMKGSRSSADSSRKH
Assay [5] concerns the target T2, Monocarboxylate transporter 1 (Homo sapiens, UniProt P53985).
T2 sequence (P53985 whole entry): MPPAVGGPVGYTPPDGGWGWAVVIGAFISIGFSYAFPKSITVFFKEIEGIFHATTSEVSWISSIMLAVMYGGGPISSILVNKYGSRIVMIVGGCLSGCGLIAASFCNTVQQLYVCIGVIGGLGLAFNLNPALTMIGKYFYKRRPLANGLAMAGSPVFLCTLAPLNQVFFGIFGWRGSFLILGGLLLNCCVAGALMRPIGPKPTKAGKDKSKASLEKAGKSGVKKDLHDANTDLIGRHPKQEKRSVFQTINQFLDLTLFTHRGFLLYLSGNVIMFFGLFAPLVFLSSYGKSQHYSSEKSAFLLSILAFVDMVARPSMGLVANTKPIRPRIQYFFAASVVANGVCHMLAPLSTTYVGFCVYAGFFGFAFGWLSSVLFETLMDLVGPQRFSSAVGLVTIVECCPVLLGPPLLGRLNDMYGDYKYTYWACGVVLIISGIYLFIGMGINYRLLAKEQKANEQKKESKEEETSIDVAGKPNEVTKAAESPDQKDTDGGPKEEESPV
Briefly: Binding affinity to MCT1 (unknown origin).

In the next assay the target is T3, Hexokinase-2 (Homo sapiens, UniProt P52789).
T3 sequence (P52789 whole entry): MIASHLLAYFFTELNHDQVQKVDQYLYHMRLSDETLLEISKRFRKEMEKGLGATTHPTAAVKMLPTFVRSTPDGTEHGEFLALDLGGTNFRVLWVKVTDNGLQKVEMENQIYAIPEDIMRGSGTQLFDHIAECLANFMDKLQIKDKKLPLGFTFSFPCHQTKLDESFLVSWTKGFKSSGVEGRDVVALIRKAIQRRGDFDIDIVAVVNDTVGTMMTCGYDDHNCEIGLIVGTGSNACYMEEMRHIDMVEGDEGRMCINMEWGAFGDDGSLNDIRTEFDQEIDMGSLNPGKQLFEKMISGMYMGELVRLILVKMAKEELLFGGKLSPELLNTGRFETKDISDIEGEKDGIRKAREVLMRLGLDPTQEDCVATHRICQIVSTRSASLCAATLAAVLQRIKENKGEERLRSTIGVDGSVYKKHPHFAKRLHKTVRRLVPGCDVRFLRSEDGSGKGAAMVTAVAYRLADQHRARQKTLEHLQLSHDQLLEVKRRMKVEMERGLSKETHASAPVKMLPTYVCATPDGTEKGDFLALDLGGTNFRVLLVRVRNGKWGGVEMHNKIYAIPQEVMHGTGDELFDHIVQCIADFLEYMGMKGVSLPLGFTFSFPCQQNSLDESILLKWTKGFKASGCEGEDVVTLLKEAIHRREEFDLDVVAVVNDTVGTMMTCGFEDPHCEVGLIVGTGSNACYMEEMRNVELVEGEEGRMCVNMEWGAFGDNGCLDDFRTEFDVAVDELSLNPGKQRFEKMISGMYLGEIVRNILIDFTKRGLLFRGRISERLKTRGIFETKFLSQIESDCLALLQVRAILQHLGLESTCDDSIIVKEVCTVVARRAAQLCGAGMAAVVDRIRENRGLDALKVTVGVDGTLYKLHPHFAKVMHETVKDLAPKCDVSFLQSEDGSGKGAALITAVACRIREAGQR
Briefly: Inhibition of hexokinase 2 (unknown origin).

The species named for the next assay is Homo sapiens. Briefly: Inhibition of glucose transporter GLUT (unknown origin) by standard glucose uptake assay. Particulars: concentration not given here.
The nature of assay [6]: Growth inhibition of human H1299 cells. It counts as functional, NCI-H1299.
Assay [7] in a line: Cytotoxicity against human H1299 cells assessed as reduction in cell viability. It counts as functional, cell-based. Particulars: NCI-H1299.
A further assay has as its system A549. Briefly: Antitumor activity against human A549 cells in in-vivo xenograft model assessed as reduction in tumor volume at 10 mg/kg/day, ip. The assay is classed as functional. Particulars: route intraperitoneal.
Assay [8] can be described thus: Antiproliferative activity against human MIAPaCa2 cells assessed as inhibition of cell proliferation. It counts as functional, cell-based. Particulars: MIA PaCa-2.
For assay [9], the target named is T1, Pyruvate kinase PKM. Briefly: Activation of pyruvate kinase PKM2 in human A549 cells. It counts as cell-based.

Sequence of Alpha-enolase (P06733 whole entry): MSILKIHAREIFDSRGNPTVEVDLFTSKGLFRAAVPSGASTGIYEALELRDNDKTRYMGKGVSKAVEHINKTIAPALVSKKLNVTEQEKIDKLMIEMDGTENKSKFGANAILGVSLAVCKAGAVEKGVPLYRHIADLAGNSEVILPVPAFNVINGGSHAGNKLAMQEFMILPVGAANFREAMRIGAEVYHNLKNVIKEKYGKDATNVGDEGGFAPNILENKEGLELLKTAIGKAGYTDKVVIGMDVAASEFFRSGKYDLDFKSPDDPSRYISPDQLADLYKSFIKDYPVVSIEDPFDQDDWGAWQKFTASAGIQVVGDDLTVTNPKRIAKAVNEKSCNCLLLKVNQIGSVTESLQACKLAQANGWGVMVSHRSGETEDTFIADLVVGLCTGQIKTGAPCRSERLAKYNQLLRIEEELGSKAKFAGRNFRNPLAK

For `NCCOCCOCCOCCOCCOCCOCCCc1ccc(S(=O)(=O)NCc2ccc(C(=O)Nc3cccnc3)cc2)cc1`, the negative-log IC50 (pIC50) (as a rule, the negative decadic logarithm of the IC50, by convention in mol/L) in [1] is 5.10; in assay [2], below 4.40. In the case of `NCCOCCOCCNC(=O)Cc1ccc(Nc2nc(NCc3ccc(F)cc3)nc(NCC3CCCCC3)n2)cc1`, the pIC50 at Alpha-enolase is 6.24. In the case of `CS(=O)(=O)N1CCc2cc(S(=O)(=O)c3ccc4c(c3)OCCO4)ccc21`, on Pyruvate kinase PKM [3], the AC50 (as a rule, the midpoint of the concentration-response curve, whichever way the signal moves) amounted to 45 nM.

Turning to `O=C(/C=C/c1ccc2ccccc2n1)c1ccncc1`, in assay [4], the pIC50 was 6.68. For the compound `Cc1[nH]nc(C(F)(F)F)c1Cc1sc2c(c1C(=O)N1C[C@](C)(O)CO1)c(=O)n(C)c(=O)n2C(C)C` [AZD3965], the pKd – broadly, −log10 of the Kd, conventionally taken in molar units – in assay [5] is 8.80.

In turn, `O=C(/C=C/c1cccnc1)c1ccncc1` gave a negative-log IC50 (pIC50) in assay [4] of 4.64.

`Cc1ccc(S(=O)(=O)NC[C@H]2O[C@@H](O)[C@H](NC(=O)/C=C/c3ccc(Cl)c(Cl)c3)[C@@H](O)[C@@H]2O)cc1` showed a pIC50 against Hexokinase-2 above 6.50. Take `O=C(Oc1cccc(F)c1OC(=O)c1cccc(O)c1)c1cccc(O)c1`: in the assay filed under Homo sapiens, the inhibition – broadly, the relative decrease from the control value, in per cent – came to 93%. Further, the “growth inhibition (GI)” value in [6] was 41%. Besides, the pIC50 in assay [7] is 5.00. The inhibition in vivo (commonly the change of the read-out against control, counted positive when it falls) at 10 mg/kg/day in the assay with A549 is 70%. For the compound `O=C1CC(c2ccc(N3CCOCC3)cc2)(c2ccsc2)NC(=O)C1Sc1ccccc1Cl` (stereo not given), the pEC50 – broadly, the negative decadic logarithm of the EC50, by convention in mol/L – in assay [8] was 6.60. For the compound `COc1ccccc1N1CCN(C(=O)c2ccc(NS(=O)(=O)c3cccc4cccnc34)cc2)CC1`, the AC50 stood at 17 nM on Pyruvate kinase PKM [3] and 45 nM on Pyruvate kinase PKM [9].
